# Measurements reported in patent publication US20230348394A1, “COMPOSITIONS AND METHODS FOR TREATING MUSCULAR DYSTROPHIES” (The Regents of the University of California, priority 2020, published 2023).
# Experiments:
# [1] = Preliminary safety assessment, IP injection in C57/B16 mice; format: in vivo
# Method: For the preliminary safety assessment of OT-9, we performed IP injections in 6 month old C57/B16 males. The mice were injected with 100 μl of vehicle (5% DMSO (Sigma), 95% PBS), 100 μl of 30 mg/kg of OT-9 in vehicle, or 100 μl of 50 mg/kg of OT-9 in vehicle (n=1 mouse per treatment). […] For assessment of activity, 20-weeks old male mdx littermates were injected in both tibialis anterior muscles with vehicle (5% DMSO, 95% PBS) or 86 μg of OT-9. Two mice were injected in both TAs with vehicle and three mice were injected in both TAs with 200 of OT-9 (9.4 mM solution containing 86 μg of OT-9). After 4 hours, the muscles were harvested and processed for gene expression analysis. For assessment of activity of OT-9m after local administration, 19-22-weeks old mdx males were injected in both tibialis anterior muscles with vehicle (5% DMSO, 95% PBS) or 3 mg/kg and 10 mg/kg of OT-9m. After 4 hours, the muscles were harvested and processed for gene expression analysis. For assessment of activity of OT-9m after systemic administration, 13-weeks old mdx males were injected subcutaneously with vehicle (4% PEG-200 in hydroxypropyl-b-cyclodextrin) or 20 mg/kg/day of OT-9m. After 13 days of treatment, the muscles were harvested and processed for gene expression analysis.
# To evaluate the in vivo safety and activity of OT-9, we performed two pilot studies in wild-type C57/B16 and mdx mice. For the preliminary safety assessment of OT-9, we performed IP injections in 6-month old C57/B16 males. The mice were injected with vehicle, 30 mg/kg of OT-9, or 50 mg/kg of OT-9 (n=1).
# SSPN gene expression = SSPN gene expression (qPCR) in dystrophin-deficient H2K mdx myotubes; format: cell-based, murine; settings: 0.5 to 50 μM
# Method: C2C12 cells (American Type Culture Collection) were grown at 37° C. with 5% CO2 in growth medium containing DMEM (Gibco) with 20% FBS (Sigma-Aldrich). Upon reaching 90-100% confluency, myoblasts were induced to differentiate by replacing the medium with differentiation medium consisting of DMEM with 2% horse serum (Sigma-Aldrich). Conditionally immortalized H2K WT and mdx myoblasts with a nonsense mutation in exon 23 of dystrophin were a gift from Terrance Partridge, Ph.D. (Children's National Medical Center, Washington, D.C.). […]
# RNA from myotubes treated for 48 hrs was extracted from cells using Trizol-based (Thermo Fisher Scientific) phase separation, Chomczynski et al., Biotechniques. […] RNA concentrations were determined using a NanoDrop 1000 (Thermo Fisher Scientific) and 750 ng of RNA in a 20 Id reaction was reverse transcribed using iScript cDNA synthesis (Bio-Rad) with the following cycling conditions: 25° C. for 5 mins, 42° C. for 30 mins, 85° C. for 5 mins. […] For qPCR of human samples, TaqMan assays were used to quantify SSPN (assay ID Hs01025520m 1) and ACTB (assay ID Hs01060665_g1) with the following reaction conditions: 50° C. for 2 mins, 95° C. for 10 mins, 40 cycles of 95° C. for 15 seconds and 62° C. for 1 minute. […]
# [2] = IP 30 mg/kg or 50 mg/kg, observed 72 hours, n=1
smiles,measurement,setting,value
CCN(CC)c1ccc2cc(C(=O)Nc3ccc(C(=O)N4CCCCCC4)cc3)c(=O)oc2c1 [OT-9],appearance of the dosing solution,"[1]; 50 mg/kg solution in 5% DMSO, 95% PBS",some insoluble particles were observed
same,"liver, kidneys, pancreas and intestine",[1]; [2],normal weight and size
same,observation of the injection site,[1]; [2],"No signs of inflammation, necrosis or compound accumulation"
same,concentration at which the concentration-dependent SSPN mRNA response peaked,SSPN gene expression,5.5 µM
